Laboratory results reported in PubChem BioAssay (NCI).
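1) Cells in 96-well plates. 2) Compound, 48 h, 5 concentrations. 3) Linear interpolation between surrounding doses. 4) Unreached endpoint = highest concentration. At the TGI there is no net growth.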

How the values were obtained:
Assay in all cases: NCI anticancer screen, dose series, 48 h
786-0 renal = tested on: 786-0 renal
A498 renal = tested on: A498 renal
A549 NSCLC = tested on: A549 NSCLC
ACHN renal = tested on: ACHN renal
CAKI-1 renal = tested on: CAKI-1 renal
CCRF-CEM leukemia = tested on: CCRF-CEM leukemia
COLO 205 colon = tested on: COLO 205 colon
DLD-1 colon = tested on: DLD-1 colon
DMS 114 small cell lung = tested on: DMS 114 small cell lung
DMS 273 small cell lung = tested on: DMS 273 small cell lung
EKVX NSCLC = tested on: EKVX NSCLC
HCT-116 colon = tested on: HCT-116 colon
HL-60(TB) leukemia = tested on: HL-60(TB) leukemia
HOP-18 NSCLC = tested on: HOP-18 NSCLC
HOP-62 NSCLC = tested on: HOP-62 NSCLC
HOP-92 NSCLC = tested on: HOP-92 NSCLC
HT29 colon = tested on: HT29 colon
IGROV1 ovarian = tested on: IGROV1 ovarian
K-562 leukemia = tested on: K-562 leukemia
KM12 colon = tested on: KM12 colon
KM20L2 colon = tested on: KM20L2 colon
LOX IMVI melanoma = tested on: LOX IMVI melanoma
M14 melanoma = tested on: M14 melanoma
M19-MEL melanoma = tested on: M19-MEL melanoma
MALME-3M melanoma = tested on: MALME-3M melanoma
MOLT-4 leukemia = tested on: MOLT-4 leukemia
NCI-H226 lung = tested on: NCI-H226 lung
NCI-H23 lung = tested on: NCI-H23 lung
NCI-H460 lung = tested on: NCI-H460 lung
OVCAR-3 ovarian = tested on: OVCAR-3 ovarian
OVCAR-4 ovarian = tested on: OVCAR-4 ovarian
OVCAR-5 ovarian = tested on: OVCAR-5 ovarian
OVCAR-8 ovarian = tested on: OVCAR-8 ovarian
RPMI-8226 leukemia = tested on: RPMI-8226 leukemia
RXF 393 renal = tested on: RXF 393 renal
RXF-631 renal = tested on: RXF-631 renal
SF-268 CNS = tested on: SF-268 CNS
SF-295 CNS = tested on: SF-295 CNS
SF-539 CNS = tested on: SF-539 CNS
SK-MEL-2 melanoma = tested on: SK-MEL-2 melanoma
SK-MEL-28 melanoma = tested on: SK-MEL-28 melanoma
SK-MEL-5 melanoma = tested on: SK-MEL-5 melanoma
SK-OV-3 ovarian = tested on: SK-OV-3 ovarian
SN12C renal = tested on: SN12C renal
SNB-19 CNS = tested on: SNB-19 CNS
SNB-75 CNS = tested on: SNB-75 CNS
SNB-78 CNS = tested on: SNB-78 CNS
SR leukemia = tested on: SR leukemia
SW-620 colon = tested on: SW-620 colon
TK-10 renal = tested on: TK-10 renal
U251 CNS = tested on: U251 CNS
UACC-257 melanoma = tested on: UACC-257 melanoma
UACC-62 melanoma = tested on: UACC-62 melanoma
UO-31 renal = tested on: UO-31 renal
XF 498 CNS = tested on: XF 498 CNS

Measured: TGI

OCC(CO)C1c2cccc3ccc4cccc1c4c23
> 100 µM: all assays above
